Measured values taken from patent US8148371B2, “Adenine compound and use thereof” (Dainippon Sumitomo Pharma Co., Ltd., priority 2002, dated 2012).

Tests used:
cells of rat spleen = assay: cells; assay type: cell-based, SD rat; conditions: for minimal effective concentration: 24 h, read-out: Minimum effective concentration (interferon inducing activity)
[1] = Metabolic stability on liver S9 of rat; conditions: rat liver S9, test compound 1 μM, 37° C.
Method: The compound of the present invention is added to liver S9 solution, and the mixture is incubated at 37±0.5° C. for 5 minutes to 2 hours. By quantitatively analyzing at the definite interval the amount of the compound of the present invention remaining in the liver S9 solution with HPLC (high performance liquid chromatography), etc., the constant of quenching velocity is calculated and the half life is calculated.
The reaction on river S9 of a rat was carried out on a 96-well plate by using a robot for screening by Tecan Company. S9 solution was prepared by adding to 10 ml of liver S9 of a rat, 20 ml of 250 mM Kpi (pH 7.4) and 20 ml of deionized water. Cofactor solution was prepared by dissolving NADPH (220 mg) in deionized water (40.5 ml) to give finally a 6 mM solution. IS (Internal Standard) solution was prepared by adding 300 μL of IS solution (1 mM DMSO solution) to 30 ml of acetonitrile solution (100 times dilution). The test compound (1 μM DMSO solution) was dissolved in an incubator at 37° C., 35 μL of it was poured into each well of a 96-well plate (24 samples/plate and then, plates (a sample plate, a 96 well-plate for dilution, deep well plates for reaction and recovering, a plate for extraction of the solid phase) and the test samples (S9 solution, Cofactor solution, IS (Internal Standard) solution, Stop solution, acetonitrile for elution) were set to the specified position in the booth of the robot. The reaction started (the concentration of the test compound was 1 μM) and the mixture was incubated at 37° C. under stirring. The solid phase was extracted and at the same time the internal standard for analysis was added. To the recovered sample (200 μL/well) was added 50 μL of acetonitrile per each well and to 2 plates of FALCON Deep well were poured 100 μL of the solution per well. By subjecting to the LC/MS analysis, the chromatogram of the test sample and the internal standard were described and the peak area was calculated. And then, the stability (residual rate after reaction) was calculated by the internal standard method.

Structure (SMILES) | minimal effective concentration (cells of rat spleen) [µM] | Residual rate [1] [%] | Minimum effective concentration (interferon inducing activity) (cells of rat spleen) [nM]
Nc1nc(CCC(=O)O)nc2c1nc(O)n2Cc1ccccc1 [Comparative example 15, 9-Benzyl-2-(2-carboxyethyl)-8-hydroxyadenine, reference compound] | 1 | – | –
COCCOc1nc(N)c2nc(O)n(Cc3cccc(CC(=O)O)c3)c2n1 [Comparative example 27, 9-(3-Carboxymethylbenzyl)-8-hydroxy-2-(2-methoxyethoxy)adenine, reference compound] | 0.3 | – | –
CCCCOc1nc(N)c2nc(O)n(Cc3ccc(C(=O)OCc4ccccc4)cc3)c2n1 [Example 14, 2-Butoxy-8-hydroxy-9-(4-benzyloxycarbonylbenzyl)adenine] | – | 22 | –
CCCCOc1nc(N)c2nc(O)n(Cc3ccc(OCC(=O)OC)c(Br)c3)c2n1 [Example 23, 2-Butoxy-8-hydroxy-9-{3-bromo-4-(methoxycarbonylmethoxy)benzyl}adenine] | 0.1 | – | –
Nc1nc(SCC(=O)N2CCOCC2)nc2c1nc(O)n2Cc1ccccc1 [Example 52, 9-Benzyl-8-hydroxy-2-(morphorinocarbonylmethyl)thioadenine] | – | 24 | –
CCOC(=O)CCCCSc1nc(N)c2nc(O)n(Cc3ccccc3)c2n1 [Example 57, 9-Benzyl-2-(4-ethoxycarbonylbutyl)thio-8-hydroxyadenine] | – | 3 | –
CSC(=O)CCc1nc(N)c2nc(O)n(Cc3ccccc3)c2n1 [Example 63] | – | 0 | 100
COC(=O)CCc1nc(N)c2nc(O)n(Cc3ccc(C)nc3)c2n1 [Example 66, 8-Hydroxy-2-methoxycarbonylethyl-9-{(6-methyl-3-pyridyl)methyl}adenine] | – | 0 | 1
COC(=O)CCc1nc(N)c2nc(O)n(Cc3ccc(CC(=O)OC)cc3)c2n1 [Example 67, 8-Hydroxy-2-(2-methoxycarbonylethyl)-9-(4-methoxycarbonylmethylbenzyl)adenine] | 0.001 | 0 | –
CCCCOc1nc(N)c2nc(O)n(Cc3ccc(CC(=O)OCCN(C)C)cc3)c2n1.Cl [Example 72, 2-Butoxy-8-hydroxy-9-{4-(2-dimethylaminoethoxycarbonyl)methylbenzyl}adenine hydrochloride] | – | 4 | –
CCCCOc1nc(N)c2nc(O)n(Cc3ccc(CC(N)=O)cc3)c2n1 [Example 76, 2-Butoxy-8-hydroxy-9-(4-carbamoylmethylbenzyl)adenine] | 0.0001 | – | –
CCCCOc1nc(N)c2nc(O)n(Cc3ccc(CC(=O)NC)cc3)c2n1 [Example 77, 2-Butoxy-8-hydroxy-9-(4-methylcarbamoylmethylbenzyl)adenine] | 0.0003 | – | –
CCCCOc1nc(N)c2nc(O)n(Cc3ccc(CC(=O)N(C)C)cc3)c2n1 [Example 78, 2-Butoxy-8-hydroxy-9-(4-dimethylcarbamoylmethylbenzyl)adenine] | 3e-05 | – | –
CCCCOc1nc(N)c2nc(O)n(Cc3ccc(CN4CCOCC4)cc3)c2n1 [Example 79, 2-Butoxy-8-hydroxy-9-(4-morpholinomethylbenzyl)adenine] | 0.0003 | 17 | –
CCCCOc1nc(N)c2nc(O)n(Cc3ccc(CC(=O)OC)o3)c2n1 [Example 81, 2-Butoxy-8-hydroxy-9-(5-methoxycarbonylmethylfurfuryl)adenine] | 0.001 | 2 | –
CCCCOc1nc(N)c2nc(O)n(Cc3ccc(C(=O)SC)nc3)c2n1 [Example 82, 2-Butoxy-8-hydroxy-9-{(6-S-methylthiocarbonyl-3-pyridyl)methyl}adenine] | – | 2 | 100
CCCCOc1nc(N)c2nc(O)n(Cc3ccc(C(N)=O)nc3)c2n1 [Example 83, 2-Butoxy-9-{(6-carbamoyl-3-pyridyl)methyl}-8-hydroxyadenine] | 0.0003 | – | –
CCCCOc1nc(N)c2[nH]c(=O)n(Cc3cccc(CCC(=O)OC)c3)c2n1 [Example 84, 2-Butoxy-8-hydroxy-9-(3-methoxycarbonylethylbenzyl)adenine] | 0.01 | 1 | –
CCCCOc1nc(N)c2nc(O)n(Cc3ccc(CCC(=O)OCC)cc3)c2n1 [Example 86, 2-Butoxy-9-(4-ethoxycarbonylethylbenzyl)-8-hydroxyadenine] | – | 18 | –
CCCCOc1nc(N)c2nc(O)n(Cc3ccc(N4CCC(C(=O)OC)CC4)nc3)c2n1 [Example 87, 2-Butoxy-8-hydroxy-9-{6-(4-methoxycarbonyl-1-piperidyl)-3-pyridylmethyl}adenine] | 0.001 | – | –
CCCCOc1nc(N)c2nc(O)n(Cc3ccc(C(=O)OC)c(C(=O)OC)c3)c2n1 [Example 90, 2-Butoxy-9-(3,4-dimethoxycarbonylbenzyl)-8-hydroxyadenine] | 0.0003 | 3 | –
CCCCOc1nc(N)c2nc(O)n(Cc3ccc(SC4CCOC4=O)nc3)c2n1 (centres unmarked) [Example 93] | – | – | 3

Structure (SMILES) | minimal effective concentration (cells of rat spleen) [µM] | Residual rate [1] [%] | Minimum effective concentration (interferon inducing activity) (cells of rat spleen) [nM]
CCCCOc1nc(N)c2nc(O)n(Cc3ccc(OC4CCOC4=O)cc3)c2n1 (centres unmarked) [Example 94, 2-Butoxy-9-{4-(γ-butyrolactonyloxy)benzyl}-8-hydroxyadenine] | – | 2 | –
CCCCOc1nc(N)c2nc(O)n(Cc3ccc(OC(O)CCC(=O)OC)cc3)c2n1 (centres unmarked) [Example 95, 2-Butoxy-9-{4-(1-hydroxy-3-methoxycarbonylpropoxy)benzyl}-8-hydroxyadenine] | 0.001 | 4 | –
COCCOc1nc(N)c2[nH]c(=O)n(Cc3cccc(CC(=O)OC)c3)c2n1 [Example 96, 8-Hydroxy-9-(3-methoxycarbonylmethylbenzyl)-2-(2-methoxyethoxy)adenine] | 0.003 | 0 | –
CCCCOc1nc(N)c2nc(O)n(Cc3ccc(C(C)C(=O)OC)cc3)c2n1 (centres unmarked) [Example 100, 2-Butoxy-8-hydroxy-9-[4-(1-methoxycarbonylethyl)benzyl]adenine] | 0.0003 | 1 | –
COC(=O)c1ccc(CSc2nc(N)c3nc(O)n(Cc4ccccc4)c3n2)cc1 [Example 104, 9-Benzyl-8-hydroxy-2-[(4-methoxycarbonylbenzyl)thio]adenine] | 0.1 | – | –
COC(=O)Cc1cccc(CSc2nc(N)c3nc(O)n(Cc4ccccc4)c3n2)c1 [Example 105, 9-Benzyl-8-hydroxy-2-[(3-methoxycarbonylmethylbenzyl)thio]adenine] | 0.3 | 1 | –
COC(=O)Cc1ccc(CSc2nc(N)c3nc(O)n(Cc4ccccc4)c3n2)cc1 [Example 106, 9-Benzyl-8-hydroxy-2-[(4-methoxycarbonylmethylbenzyl)thio]adenine] | 0.1 | 3 | –
CCCCOC(=O)Cc1nc(N)c2nc(O)n(Cc3ccccc3)c2n1 [Example 107, 9-Benzyl-2-butoxycarbonylmethyl-8-hydroxyadenine] | 0.1 | 3 | –
CC(C)OC(=O)Cc1nc(N)c2nc(O)n(Cc3ccccc3)c2n1 [Example 108, 9-Benzyl-8-hydroxy-2-(isopropoxycarbonylmethyl)adenine] | 0.03 | 3 | –
Nc1nc(CC(=O)N2CCOCC2)nc2c1nc(O)n2Cc1ccccc1 [Example 110, 9-Benzyl-8-hydroxy-2-(morpholinocarbonylmethyl)adenine] | 0.1 | – | –
Nc1nc(OCC(=O)O)nc2c1nc(O)n2Cc1ccccc1 [compound 16, 9-Benzyl-8-hydroxy-2-calboxylmethoxyadenine, reference compound] | 1 | – | –
Cc1ccc(Cn2c(O)nc3c(N)nc(CCC(=O)O)nc32)cn1 [compound 17, reference compound] | 0.3 | – | –
Nc1nc(CCC(=O)O)nc2c1nc(O)n2Cc1ccc(CC(=O)O)cc1 [compound 18, 2-(2-Carboxylethyl)-9-(4-carboxylmethylbenzyl)-8-hydroxyadenine, reference compound] | 3 | – | –
CCCCOc1nc(N)c2nc(O)n(Cc3ccc(CC(=O)O)o3)c2n1 [compound 19, 2-Butoxy-9-(5-carboxylmethylfurfuryl)-8-hydroxyadenine, reference compound] | 0.03 | – | –
CCCCOc1nc(N)c2nc(O)n(Cc3cccc(CCC(=O)O)c3)c2n1 [compound 20, reference compound] | 0.03 | – | –
CCCCOc1nc(N)c2nc(O)n(Cc3ccc(N4CCC(C(=O)O)CC4)nc3)c2n1 [compound 21, reference compound] | 0.003 | – | –
CCCCOc1nc(N)c2nc(O)n(Cc3ccc(C(=O)O)c(C(=O)O)c3)c2n1 [compound 23, 2-Butoxy-9-(3,4-dicarboxylbenzyl)-8-hydroxyadenine, reference compound] | 0.1 | – | –
CCCCOc1nc(N)c2nc(O)n(Cc3ccc(C(C)C(=O)O)cc3)c2n1 (centres unmarked) [compound 31, 2-Butoxy-8-hydroxy-9-[4-(1-carboxyethyl)benzyl]adenine, reference compound] | 0.03 | – | –
Nc1nc(SCc2cccc(C(=O)O)c2)nc2c1nc(O)n2Cc1ccccc1 [compound 34, 9-Benzyl-8-hydroxy-2-[(3-carboxybenzyl)thio]adenine, reference compound] | 0.3 | – | –
Nc1nc(SCc2ccc(C(=O)O)cc2)nc2c1nc(O)n2Cc1ccccc1 [compound 35, 9-Benzyl-8-hydroxy-2-[(4-carboxybenzyl)thio]adenine, reference compound] | 1 | – | –
Nc1nc(SCc2cccc(CC(=O)O)c2)nc2c1nc(O)n2Cc1ccccc1 [compound 36, 9-Benzyl-8-hydroxy-2-[(3-carboxymethylbenzyl)thio]adenine, reference compound] | 3 | – | –
Nc1nc(SCc2ccc(CC(=O)O)cc2)nc2c1nc(O)n2Cc1ccccc1 [compound 37, 9-Benzyl-8-hydroxy-2-[(4-carboxymethylbenzyl)thio]adenine, reference compound] | 1 | – | –
